Assay results taken from ChEMBL document CHEMBL1201862, “PubChem BioAssay data set” (2004).
Active and inactive are the calls of the source.

Assays:
[1] = target: T1, Corticotropin-releasing factor receptor 2/Corticotropin-releasing factor-binding protein (Homo sapiens, UniProt P24387+Q13324); experiment: activators of CRF receptor 2 with binding protein – uHTS hits, confirmation (AID 602473); type: functional; details: read-out: EC50_Mean
T1 sequence (Q13324 whole entry): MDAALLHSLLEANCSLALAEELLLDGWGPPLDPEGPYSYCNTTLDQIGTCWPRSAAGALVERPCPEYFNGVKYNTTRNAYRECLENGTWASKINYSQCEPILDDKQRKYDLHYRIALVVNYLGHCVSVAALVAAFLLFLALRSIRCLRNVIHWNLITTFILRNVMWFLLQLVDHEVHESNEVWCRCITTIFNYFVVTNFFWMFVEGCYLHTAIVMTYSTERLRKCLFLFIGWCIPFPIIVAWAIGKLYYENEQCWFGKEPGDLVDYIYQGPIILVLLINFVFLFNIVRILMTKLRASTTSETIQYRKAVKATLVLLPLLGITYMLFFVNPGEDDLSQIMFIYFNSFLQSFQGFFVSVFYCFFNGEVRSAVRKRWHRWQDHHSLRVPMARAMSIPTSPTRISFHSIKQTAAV
T1 sequence (P24387 whole entry): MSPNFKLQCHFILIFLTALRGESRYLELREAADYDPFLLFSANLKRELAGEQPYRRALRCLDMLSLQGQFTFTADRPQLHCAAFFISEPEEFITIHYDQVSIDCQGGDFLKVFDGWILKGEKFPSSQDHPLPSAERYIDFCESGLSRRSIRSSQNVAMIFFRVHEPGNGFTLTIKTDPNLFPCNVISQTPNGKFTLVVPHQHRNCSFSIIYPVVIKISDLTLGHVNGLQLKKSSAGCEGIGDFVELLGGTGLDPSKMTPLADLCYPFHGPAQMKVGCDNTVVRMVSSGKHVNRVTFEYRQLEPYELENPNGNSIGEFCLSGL

[2] = target: Endoplasmic reticulum aminopeptidase 1 (Homo sapiens, UniProt Q9NZ08); experiment: inhibition of human ERAP1 enzyme activity – biochemical, cherry-pick, set 2, plate reader, dose response (AID 743314)
Sequence of Endoplasmic reticulum aminopeptidase 1 (Q9NZ08 whole entry): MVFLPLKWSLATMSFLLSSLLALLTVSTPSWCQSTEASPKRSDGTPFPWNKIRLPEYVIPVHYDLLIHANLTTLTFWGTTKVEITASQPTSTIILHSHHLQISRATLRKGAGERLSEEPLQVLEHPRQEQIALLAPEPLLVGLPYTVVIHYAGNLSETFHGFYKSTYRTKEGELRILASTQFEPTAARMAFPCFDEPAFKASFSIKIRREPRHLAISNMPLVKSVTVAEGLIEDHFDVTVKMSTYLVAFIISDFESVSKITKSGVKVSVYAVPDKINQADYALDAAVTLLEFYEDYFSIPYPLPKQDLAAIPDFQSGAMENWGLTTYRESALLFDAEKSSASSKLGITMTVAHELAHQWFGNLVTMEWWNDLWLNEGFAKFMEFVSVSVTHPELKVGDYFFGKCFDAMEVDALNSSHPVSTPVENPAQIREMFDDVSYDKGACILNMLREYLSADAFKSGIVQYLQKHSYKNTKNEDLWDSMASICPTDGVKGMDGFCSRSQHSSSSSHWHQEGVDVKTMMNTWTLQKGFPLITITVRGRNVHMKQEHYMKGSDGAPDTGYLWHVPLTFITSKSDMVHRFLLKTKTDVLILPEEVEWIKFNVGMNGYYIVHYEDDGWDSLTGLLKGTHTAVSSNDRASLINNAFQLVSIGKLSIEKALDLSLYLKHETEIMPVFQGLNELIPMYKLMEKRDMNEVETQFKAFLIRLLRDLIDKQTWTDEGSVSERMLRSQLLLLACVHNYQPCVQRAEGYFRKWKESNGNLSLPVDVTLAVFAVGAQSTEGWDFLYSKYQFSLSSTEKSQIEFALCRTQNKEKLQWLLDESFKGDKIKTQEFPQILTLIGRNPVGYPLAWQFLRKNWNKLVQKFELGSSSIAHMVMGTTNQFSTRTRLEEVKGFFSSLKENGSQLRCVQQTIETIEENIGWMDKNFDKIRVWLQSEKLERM

[3] = target: T2, Histone-lysine N-methyltransferase NSD2 (Homo sapiens, UniProt O96028); type: biochemical
T2 sequence (O96028 whole entry): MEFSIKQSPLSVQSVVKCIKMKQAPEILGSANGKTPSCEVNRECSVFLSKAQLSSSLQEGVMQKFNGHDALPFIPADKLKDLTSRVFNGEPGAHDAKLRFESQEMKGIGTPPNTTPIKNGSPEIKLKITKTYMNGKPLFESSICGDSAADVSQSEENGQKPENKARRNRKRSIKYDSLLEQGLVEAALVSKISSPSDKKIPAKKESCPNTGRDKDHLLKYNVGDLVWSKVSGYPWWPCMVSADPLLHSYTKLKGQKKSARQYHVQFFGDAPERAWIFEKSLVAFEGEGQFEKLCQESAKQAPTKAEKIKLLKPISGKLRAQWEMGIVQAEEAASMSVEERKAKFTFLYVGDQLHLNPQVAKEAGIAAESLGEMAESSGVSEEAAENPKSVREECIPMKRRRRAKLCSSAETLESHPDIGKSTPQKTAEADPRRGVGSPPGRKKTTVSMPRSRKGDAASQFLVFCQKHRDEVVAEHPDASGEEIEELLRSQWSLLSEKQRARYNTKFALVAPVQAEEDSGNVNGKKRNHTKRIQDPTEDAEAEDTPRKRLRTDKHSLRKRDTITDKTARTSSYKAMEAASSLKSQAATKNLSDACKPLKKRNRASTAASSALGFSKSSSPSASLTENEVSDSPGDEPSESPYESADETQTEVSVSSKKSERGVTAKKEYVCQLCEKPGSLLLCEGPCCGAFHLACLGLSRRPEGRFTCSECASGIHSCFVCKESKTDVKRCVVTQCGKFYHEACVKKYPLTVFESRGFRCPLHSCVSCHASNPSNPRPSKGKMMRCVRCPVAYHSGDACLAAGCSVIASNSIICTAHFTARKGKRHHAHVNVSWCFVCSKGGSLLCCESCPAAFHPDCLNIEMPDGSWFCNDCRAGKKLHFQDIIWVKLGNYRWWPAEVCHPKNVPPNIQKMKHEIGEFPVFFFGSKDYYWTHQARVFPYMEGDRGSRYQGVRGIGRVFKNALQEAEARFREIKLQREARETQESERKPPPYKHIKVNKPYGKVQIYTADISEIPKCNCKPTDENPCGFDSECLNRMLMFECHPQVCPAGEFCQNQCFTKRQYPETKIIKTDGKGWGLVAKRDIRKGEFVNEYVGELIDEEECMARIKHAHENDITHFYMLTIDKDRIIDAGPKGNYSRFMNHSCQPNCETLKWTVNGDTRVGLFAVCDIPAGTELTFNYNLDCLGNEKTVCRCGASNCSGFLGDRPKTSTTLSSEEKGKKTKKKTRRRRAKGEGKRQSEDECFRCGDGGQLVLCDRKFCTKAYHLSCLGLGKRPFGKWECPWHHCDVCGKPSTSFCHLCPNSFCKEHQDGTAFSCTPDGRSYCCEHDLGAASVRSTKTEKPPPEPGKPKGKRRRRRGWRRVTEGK

Nonstructural protein 1 = Nonstructural protein 1 (Influenza A virus, UniProt Q194T2); type: functional, Influenza A virus (A/California/07/2009(H1N1))
Sequence of Nonstructural protein 1 (Q194T2 whole entry): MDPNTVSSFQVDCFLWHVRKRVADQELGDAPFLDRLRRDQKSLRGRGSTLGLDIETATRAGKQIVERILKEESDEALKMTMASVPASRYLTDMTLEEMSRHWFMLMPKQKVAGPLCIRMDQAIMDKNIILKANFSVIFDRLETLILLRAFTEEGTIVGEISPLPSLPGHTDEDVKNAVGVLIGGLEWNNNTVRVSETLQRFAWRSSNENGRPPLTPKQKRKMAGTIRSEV

Beta-galactosidase = Beta-galactosidase (Escherichia coli, UniProt Q8VNN2); experiment: Dose response counterscreen for EBI2 assay utilizing the enzyme, b-galactosidase.; type: functional
Sequence of Beta-galactosidase (Q8VNN2 whole entry): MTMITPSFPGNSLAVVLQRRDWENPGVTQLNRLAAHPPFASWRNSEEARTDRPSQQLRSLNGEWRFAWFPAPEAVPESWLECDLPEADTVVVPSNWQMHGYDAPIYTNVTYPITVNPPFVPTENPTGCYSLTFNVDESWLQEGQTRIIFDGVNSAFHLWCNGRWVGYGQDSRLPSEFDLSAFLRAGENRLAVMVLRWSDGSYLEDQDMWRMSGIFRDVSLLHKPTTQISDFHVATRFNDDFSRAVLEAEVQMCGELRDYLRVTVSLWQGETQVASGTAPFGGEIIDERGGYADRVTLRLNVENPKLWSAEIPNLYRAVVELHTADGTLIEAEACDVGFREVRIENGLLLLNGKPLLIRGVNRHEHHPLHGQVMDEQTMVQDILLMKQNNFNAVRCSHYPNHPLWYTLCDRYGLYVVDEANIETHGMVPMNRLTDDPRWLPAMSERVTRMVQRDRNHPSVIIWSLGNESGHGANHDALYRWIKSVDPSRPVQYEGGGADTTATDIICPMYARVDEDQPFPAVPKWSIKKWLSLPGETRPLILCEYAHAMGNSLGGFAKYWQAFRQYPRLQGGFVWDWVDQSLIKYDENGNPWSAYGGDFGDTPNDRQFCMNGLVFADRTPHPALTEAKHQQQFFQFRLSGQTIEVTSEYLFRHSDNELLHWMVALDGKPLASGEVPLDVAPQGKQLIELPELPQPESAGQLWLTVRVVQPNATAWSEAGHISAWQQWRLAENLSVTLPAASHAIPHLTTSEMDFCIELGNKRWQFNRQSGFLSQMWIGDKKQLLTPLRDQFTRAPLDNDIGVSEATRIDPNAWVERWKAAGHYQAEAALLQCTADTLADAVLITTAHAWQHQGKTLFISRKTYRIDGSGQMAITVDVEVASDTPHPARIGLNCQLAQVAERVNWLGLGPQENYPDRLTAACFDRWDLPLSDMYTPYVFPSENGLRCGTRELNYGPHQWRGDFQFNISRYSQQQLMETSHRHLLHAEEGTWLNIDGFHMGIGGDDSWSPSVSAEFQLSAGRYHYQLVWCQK

[4] = target: T3, Aryl hydrocarbon receptor (Homo sapiens, UniProt P35869); experiment: Luminescence-based cell-based high throughput dose response assay for activators of the Aryl Hydrocarbon Receptor (AHR). [Related pubchem assays: 2796 (Primary screen (AHR activators in singlicate)), 2845 (Confirmation screen (AHR activators in triplicate)), 434939 (Counterscreen (PXR activators in triplicate)), 2804 (Summary (AHR activators))]; type: ADME
T3 sequence (P35869 whole entry): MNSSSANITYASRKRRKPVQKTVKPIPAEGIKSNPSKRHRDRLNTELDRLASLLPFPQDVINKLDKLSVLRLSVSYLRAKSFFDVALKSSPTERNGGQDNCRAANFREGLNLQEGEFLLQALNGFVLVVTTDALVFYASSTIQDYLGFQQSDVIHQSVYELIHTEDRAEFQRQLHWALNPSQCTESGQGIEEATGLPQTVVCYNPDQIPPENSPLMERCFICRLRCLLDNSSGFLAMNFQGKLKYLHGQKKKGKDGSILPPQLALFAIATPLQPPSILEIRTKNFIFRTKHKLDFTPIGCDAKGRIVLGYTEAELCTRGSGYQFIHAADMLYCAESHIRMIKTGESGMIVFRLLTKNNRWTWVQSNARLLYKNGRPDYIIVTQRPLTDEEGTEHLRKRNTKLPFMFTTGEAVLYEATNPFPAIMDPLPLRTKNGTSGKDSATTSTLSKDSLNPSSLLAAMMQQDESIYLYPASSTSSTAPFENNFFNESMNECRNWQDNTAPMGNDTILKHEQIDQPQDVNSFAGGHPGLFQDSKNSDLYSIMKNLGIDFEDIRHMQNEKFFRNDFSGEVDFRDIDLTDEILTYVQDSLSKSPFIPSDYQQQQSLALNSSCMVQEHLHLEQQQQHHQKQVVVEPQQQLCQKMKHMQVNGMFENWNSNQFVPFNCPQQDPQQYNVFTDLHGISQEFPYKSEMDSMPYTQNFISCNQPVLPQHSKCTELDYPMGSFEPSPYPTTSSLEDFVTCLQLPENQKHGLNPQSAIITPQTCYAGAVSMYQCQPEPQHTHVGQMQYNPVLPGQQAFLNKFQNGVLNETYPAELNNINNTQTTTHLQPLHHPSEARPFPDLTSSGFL

[5] = HIV-1 Vif–A3G interaction blockers – biochemical, TR-FRET, GST-Vif 1-94, biotin-A3G peptide, dose response retest, primary screen (AID 1117319); type: functional;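 further: TR-FRET signal of purified GST-Vif binding a biotinylated A3G peptide; inhibitors lower the FRET signal by blocking Vif and A3G binding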
[6] = target: Mitogen-activated protein kinase 10 (Homo sapiens, UniProt P53779); experiment: Dose response biochemical screening assay for inhibitors of c-Jun N-Terminal Kinase 3 (JNK3). [Related pubchem assays: 746 ]
Sequence of Mitogen-activated protein kinase 10 (P53779 whole entry): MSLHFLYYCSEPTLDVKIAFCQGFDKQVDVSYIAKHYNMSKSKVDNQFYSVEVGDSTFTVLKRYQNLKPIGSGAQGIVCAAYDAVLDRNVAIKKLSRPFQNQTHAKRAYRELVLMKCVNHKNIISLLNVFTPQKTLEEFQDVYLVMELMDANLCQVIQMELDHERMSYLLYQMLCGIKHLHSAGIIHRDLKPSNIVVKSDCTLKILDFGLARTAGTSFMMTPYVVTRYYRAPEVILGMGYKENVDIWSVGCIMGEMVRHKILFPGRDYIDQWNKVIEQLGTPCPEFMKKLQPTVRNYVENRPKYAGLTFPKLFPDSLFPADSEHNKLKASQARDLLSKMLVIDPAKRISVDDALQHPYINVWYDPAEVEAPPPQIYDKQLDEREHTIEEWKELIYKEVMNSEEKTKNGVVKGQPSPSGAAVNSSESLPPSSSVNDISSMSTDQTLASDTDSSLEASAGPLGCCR

Prothrombin = Prothrombin (Homo sapiens, UniProt P00734); experiment: Thrombin 1536 HTS Dose Response Confirmation. [Related pubchem assays: 1046 (Thrombin 1536 HTS; hits were confirmed in this assay)]; type: functional
Streptococcus = experiment: GAS UMAA2166 growth inhibition – luminescence, BacTiterGlo, counter-screen for streptokinase expression inhibitor project, dose response (AID 1915); type: functional, organism-based;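 further: potency for reduction of bacterial viability or growth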
[7] = tested on: Streptococcus sp. 'group A'; experiment: Streptococcus pyogenes SK(-)GAS viability under kanamycin – luminescence, BacTiterGlo, confirmation, counter-screen for streptokinase expression inhibitor project, dose response (AID 1900); type: functional, organism-based
Estrogen receptor beta [8] = target: T4, Estrogen receptor beta (Homo sapiens, UniProt Q92731); experiment: blockers of SRC-3 recruitment to ERβ – biochemical, ELISA, streptavidin-HRP readout, orthogonal assay, confirmation (AID 1060)
T4 sequence (Q92731 whole entry): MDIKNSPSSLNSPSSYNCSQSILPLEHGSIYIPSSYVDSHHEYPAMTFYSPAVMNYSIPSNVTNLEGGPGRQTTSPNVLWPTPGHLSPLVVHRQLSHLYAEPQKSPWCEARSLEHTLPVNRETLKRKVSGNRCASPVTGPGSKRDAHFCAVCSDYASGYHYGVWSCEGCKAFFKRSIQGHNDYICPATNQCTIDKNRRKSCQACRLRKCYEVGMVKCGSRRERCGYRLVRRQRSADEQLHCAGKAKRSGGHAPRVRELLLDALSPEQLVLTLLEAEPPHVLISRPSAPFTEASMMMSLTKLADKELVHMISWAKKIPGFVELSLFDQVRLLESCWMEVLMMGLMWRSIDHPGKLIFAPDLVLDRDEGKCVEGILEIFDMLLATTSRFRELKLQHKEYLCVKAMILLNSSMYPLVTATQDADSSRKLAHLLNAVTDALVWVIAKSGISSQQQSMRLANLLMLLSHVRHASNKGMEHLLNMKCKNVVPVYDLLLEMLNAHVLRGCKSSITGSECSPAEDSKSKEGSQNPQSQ

[9] = target: T5, Long-chain-fatty-acid--AMP ligase FadD28 (Mycobacterium tuberculosis, UniProt P9WQ59); experiment: Fluorescence polarization aasay to screen for inhibitors that compete for the binding of FadD28 to a bisubstrate Measured in Biochemical System Using Plate Reader - 2147-01_Inhibitor_Dose_CherryPick_Activity.; type: functional, Mycobacterium tuberculosis H37Rv
T5 sequence (P9WQ59 whole entry): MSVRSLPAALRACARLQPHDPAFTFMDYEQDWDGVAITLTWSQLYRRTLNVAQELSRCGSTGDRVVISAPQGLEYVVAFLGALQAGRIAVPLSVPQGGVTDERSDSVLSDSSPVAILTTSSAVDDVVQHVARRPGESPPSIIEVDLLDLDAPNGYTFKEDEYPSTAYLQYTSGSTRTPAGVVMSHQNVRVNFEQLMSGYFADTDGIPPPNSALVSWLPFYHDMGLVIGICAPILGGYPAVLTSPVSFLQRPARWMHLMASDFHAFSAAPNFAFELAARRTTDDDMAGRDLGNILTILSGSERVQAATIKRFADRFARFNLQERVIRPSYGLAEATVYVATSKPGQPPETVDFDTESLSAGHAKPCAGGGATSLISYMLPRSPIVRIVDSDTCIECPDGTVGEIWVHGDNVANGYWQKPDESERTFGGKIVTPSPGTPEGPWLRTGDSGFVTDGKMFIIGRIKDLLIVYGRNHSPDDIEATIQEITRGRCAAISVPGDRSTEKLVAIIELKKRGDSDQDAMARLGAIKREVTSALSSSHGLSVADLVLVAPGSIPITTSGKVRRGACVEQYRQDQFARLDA

Streptokinase A = target: T6, Streptokinase A (Streptococcus pyogenes serotype M1, UniProt P10520); experiment: viability-normalized secreted streptokinase activity reduction – plasminogen activation absorbance, OD405, dose response (AID 1914); type: functional, Streptococcus pyogenes M1 GAS;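 further: secreted streptokinase activity via plasminogen activation per viability signal from cell pellet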
T6 sequence (P10520 whole entry): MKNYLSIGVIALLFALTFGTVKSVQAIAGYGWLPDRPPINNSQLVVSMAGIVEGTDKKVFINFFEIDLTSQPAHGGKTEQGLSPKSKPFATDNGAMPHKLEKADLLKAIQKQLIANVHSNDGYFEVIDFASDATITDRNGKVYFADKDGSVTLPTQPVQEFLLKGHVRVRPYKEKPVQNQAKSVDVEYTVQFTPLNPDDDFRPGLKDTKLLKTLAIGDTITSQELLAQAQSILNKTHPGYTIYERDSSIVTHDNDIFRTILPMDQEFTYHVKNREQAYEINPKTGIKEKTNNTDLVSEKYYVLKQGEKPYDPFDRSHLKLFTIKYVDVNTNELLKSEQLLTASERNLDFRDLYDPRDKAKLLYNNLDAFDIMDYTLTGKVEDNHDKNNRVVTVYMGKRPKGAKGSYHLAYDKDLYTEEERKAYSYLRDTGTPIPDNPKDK

Estrogen receptor beta [10] = target: T4, Estrogen receptor beta
[11] = general mammalian cell viability loss – inhibitor set, cherry-pick, set 2, cytotoxicity control for miR-122 modulator project, dose response (AID 720697); type: functional, cell-based

O=c1oc2c(CN3CCN(CCO)CC3)c(O)ccc2cc1-c1ccccn1
EC50 [1]: 6.05 µM (active)
AC50 [2]: 1.46 µM (active)

O=[N+]([O-])c1ccccc1/C=C\C=N\N1CCN(c2ccccc2)CC1
AC50 [3]: > 20 µM (inactive)
IC50 (Nonstructural protein 1): 59.2 µM (active)

Cc1ccc(Cl)cc1N1CCN(C(=O)c2cc3c(O)nc4ccccc4c3n2C)CC1
IC50 (Beta-galactosidase): > 80 µM (inactive)

Cn1c(C(=O)N2CCC(C(N)=O)CC2)cc2cc(Cl)ccc21
EC50 [4]: 0.91 µM (active)

O=C(CN1C(=O)CSC1=O)Nc1ccccc1N1CCOCC1
IC50 [5]: > 100 µM (active)

O=C(NCc1nc2ncc(Br)cc2[nH]1)c1ccccc1
IC50 [6]: 38.3 µM (not active)

Cc1cc(C)c2cc(C(=O)N3CCC(C(=O)c4ccc(F)cc4)CC3)[nH]c2c1
IC50 (Beta-galactosidase): > 80 µM (inactive)

Cc1ccnc(NC(=O)C2CCCN(S(=O)(=O)c3c[nH]cn3)C2)c1 (stereo unspecified)
IC50 (Prothrombin): > 50 µM (not active)

CCOC(=O)c1c(NS(=O)(=O)c2ccc(Br)cc2)sc2c1CCC2
EC50 (Streptococcus): 4.07 µM (active)
EC50 [7]: 2.1 µM (active)
IC50 (Estrogen receptor beta [8]): > 50 µM (not active)
AC50 [9]: > 100 µM (inactive)
EC50 (Streptokinase A): > 150 µM (not active)
IC50 (Estrogen receptor beta [10]): > 50 µM (not active)

O=C(Nc1ccccc1N1CCOCC1)c1ccc2[nH]cnc2c1
IC50 (Prothrombin): 6.87 µM (active)

O=C(c1ccc(N2CCCCC2)c([N+](=O)[O-])c1)N(c1ccccn1)c1ccccn1
IC50 (Prothrombin): > 50 µM (not active)

COCC(=O)Nc1sc2c(c1C(=O)OC)C(C(=O)OC)CC2 (stereo unspecified)
IC50 [5]: > 100 µM (active)

Cc1ccc(/C(=N/Nc2nc3ccccc3s2)C2=C(O)c3ccccc3C2=O)cc1
AC50 [9]: 41.1 µM (active)

C[C@@H]1CN([C@@H](C)CO)S(=O)(=O)c2ccc(C3=CCCCC3)cc2O[C@@H]1CN(C)C(=O)Nc1ccc2c(c1)OCO2
AC50 [11]: 0.502 µM (active)

Cc1ccc2oc(=O)c3cnn(CC(=O)N4CCN(c5ccccn5)CC4)c3c2c1
IC50 [6]: > 93.1 µM (not active)

Oc1ccc(O)c(C=NNC(=S)NC2CC3CC2C2C=CCC32)c1 (stereo unspecified)
AC50 [9]: > 100 µM (inactive)

CCN1[C@H](C(=O)Nc2nccs2)[C@@H](CO)[C@@H]2Cn3c(ccc(/C=C/c4ccccc4)c3=O)[C@@H]21
AC50 [2]: 19 µM (active)

COc1cccc(CNC(=O)[C@H]2N[C@H]3c4ccc(/C=C/c5ccccc5)c(=O)n4C[C@H]3[C@@H]2CO)c1
AC50 [2]: 16.2 µM (active)

FC(F)(F)c1ccc(Oc2ccc3cc(Br)ccc3c2)nc1
IC50 (Beta-galactosidase): > 80 µM (inactive)
